Among the data in patent publication US20230078764A1 (Yumanity Therapeutics, Inc., priority 2019, published 2023) are IC50 values, retold here.

The target of assay [1] is T1, human SCD1 (Homo sapiens, UniProt O00767).
T1 construct: expressed in transfected cells; host or cells: yeast strain with OLE1 deleted, plasmid-borne human SCD1 (selected in SD-Ura)
T1 sequence (O00767 1-359): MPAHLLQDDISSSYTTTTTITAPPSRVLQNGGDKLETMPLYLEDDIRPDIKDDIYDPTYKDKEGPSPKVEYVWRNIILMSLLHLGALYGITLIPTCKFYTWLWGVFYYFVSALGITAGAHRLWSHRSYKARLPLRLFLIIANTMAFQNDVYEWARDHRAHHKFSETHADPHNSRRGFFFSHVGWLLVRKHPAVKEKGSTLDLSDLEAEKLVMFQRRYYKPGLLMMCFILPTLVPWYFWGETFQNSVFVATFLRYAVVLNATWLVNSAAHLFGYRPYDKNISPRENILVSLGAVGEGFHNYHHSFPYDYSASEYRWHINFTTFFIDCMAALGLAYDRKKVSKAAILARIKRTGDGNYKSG
The experiment in a line: Growth inhibition of yeast strain expressing human SCD1 as sole desaturase (OLE1 deleted), OD600 readout. The class given is cell-based. The note with it: yeast strain expressing human SCD1 as sole desaturase; growth (OD600) after 40 h at 30° C.; read-out: SCD1 IC50.

For assay [2], the target named is T2, human SCD5 (Homo sapiens, UniProt Q86SK9).
T2 construct: expressed in transfected cells; host or cells: yeast strain with OLE1 deleted, plasmid-borne human SCD5 (selected in SD-Ura)
T2 sequence (Q86SK9 1-330): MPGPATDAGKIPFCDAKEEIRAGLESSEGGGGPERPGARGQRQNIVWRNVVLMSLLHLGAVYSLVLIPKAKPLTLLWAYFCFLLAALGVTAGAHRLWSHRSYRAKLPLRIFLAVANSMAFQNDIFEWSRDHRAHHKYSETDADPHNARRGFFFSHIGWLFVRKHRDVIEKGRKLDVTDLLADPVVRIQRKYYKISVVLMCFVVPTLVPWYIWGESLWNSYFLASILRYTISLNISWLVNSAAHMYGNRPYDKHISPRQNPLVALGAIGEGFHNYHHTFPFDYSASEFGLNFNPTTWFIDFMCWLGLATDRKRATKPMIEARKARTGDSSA
The experiment in a line: Growth inhibition of yeast strain expressing human SCD5 as sole desaturase (OLE1 deleted), OD600 readout. The class given is cell-based. The note with it: yeast strain expressing human SCD5 as sole desaturase; growth (OD600) after 40 h at 30° C.; read-out: SCD5 IC50.

As to `Cc1nccc(C(=O)Nc2ccc(Cc3cccc(F)c3)cn2)n1` [Compound 144, N-(5-(3-fluorobenzyl)pyridin-2-yl)-2-methylpyrimidine-4-carboxamide], the IC50 in assay [1] and in assay [2] was 10 nM in each case.

Take `Cc1ccc(C(=O)Nc2ccc(Cc3cccc(F)c3)cn2)nn1` [Compound 145, N-(5-(3-fluorobenzyl)pyridin-2-yl)-6-methylpyridazine-3-carboxamide]: the IC50 in assay [1] was 1710 nM; in assay [2], 100 nM.

As for `O=C(Nc1ccc(Cc2cccc(Cl)c2)cn1)c1ccc2nncn2c1` [Compound 146, N-(5-(3-chlorobenzyl)pyridin-2-yl)-[1,2,4]triazolo[4,3-a]pyridine-6-carboxamide], the IC50 was determined as 190 nM in assay [1] and 10 nM in assay [2].

Consider `O=C(Nc1ccc(Cc2ccc(F)c(F)c2)cn1)c1ccc2nncn2c1` [Compound 147, N-(5-(3,4-difluorobenzyl)pyridin-2-yl)-[1,2,4]triazolo[4,3-a]pyridine-6-carboxamide], for which the values for the IC50 in assay [1] and in assay [2] were 310 nM and 40 nM, respectively.

As to `O=C(Nc1ccc(Cc2ccc(F)c(Cl)c2)cn1)c1ccc2nncn2c1` [Compound 148, N-(5-(3-chloro-4-fluorobenzyl)pyridin-2-yl)-[1,2,4]triazolo[4,3-a]pyridine-6-carboxamide], the IC50 in assay [1] and in assay [2] was 10 nM throughout.

Take `O=C(Nc1ccc(Cc2cc(F)cc(F)c2)cn1)c1ccc2nncn2c1` [Compound 149, N-(5-(3,5-difluorobenzyl)pyridin-2-yl)-[1,2,4]triazolo[4,3-a]pyridine-6-carboxamide]: the half-maximal inhibitory concentration (IC50) came out at 230 nM in assay [1] and 10 nM in assay [2].

For `O=C(Nc1ccc2nncn2c1)c1ccc(Cc2cccc(Cl)c2)cn1` [Compound 150, N-([1,2,4]triazolo[4,3-a]pyridin-6-yl)-5-(3-chlorobenzyl)picolinamide trifluoroacetic Acid], the IC50 in assay [1] stood at 20 nM; in assay [2], 10 nM.

For `O=C(Nc1ccc(Cc2cccc(F)c2)cn1)c1ccc2nncn2c1` [Compound 151, N-(5-(3-fluorobenzyl)pyridin-2-yl)-[1,2,4]triazolo[4,3-a]pyridine-6-carboxamide], the results for the IC50 in assay [1] and in assay [2] were 1340 nM and 80 nM, respectively.

As for `Cn1ncc2cc(-c3ccc(Cc4cccc(F)c4)cn3)ccc21` [Compound 153, 5-(5-(3-fluorobenzyl)pyridin-2-yl)-1-methyl-1H-indazole], the IC50 in assay [1] was 5300 nM; in assay [2], 7600 nM.

With `O=C(Nc1ccc(Cc2cccc(F)c2)cn1)c1ccc2nccn2c1` [Compound 154, N-(5-(3-fluorobenzyl)pyridin-2-yl)imidazo[1,2-a]pyridine-6-carboxamide], the IC50 is above 45000 nM in assay [1] and 14600 nM in assay [2].

Regarding `O=C(Nc1ccc(Cc2cccc(Cl)c2)cn1)c1ccc2nccn2c1` [Compound 155, N-(5-(3-chlorobenzyl)pyridin-2-yl)imidazo[1,2-a]pyridine-6-carboxamide], the IC50 in assay [1] turned out to be 24700 nM; in assay [2], 7800 nM.

For the compound `CN1N=C(C(=O)Nc2ccc(Oc3ccccc3Cl)cn2)CCC1=O` [Compound 156, N-(5-(2-chlorophenoxy)pyridin-2-yl)-1-methyl-6-oxo-1,4,5,6-tetrahydropyridazine-3-carboxamide], the IC50 in assay [1] was above 45000 nM; in assay [2] it was 28100 nM.

Regarding `CN1N=C(C(=O)Nc2ccc(Oc3cccc(Cl)c3)cn2)CCC1=O` [Compound 157, N-(5-(3-chlorophenoxy)pyridin-2-yl)-1-methyl-6-oxo-1,4,5,6-tetrahydropyridazine-3-carboxamide], the IC50 in assay [1] was above 45000 nM; in assay [2], 6650 nM.

As for `CN1N=C(C(=O)Nc2ccc(Oc3ccc(Cl)cc3)cc2)CCC1=O` [Compound 158, N-(4-(4-chlorophenoxy)phenyl)-1-methyl-6-oxo-1,4,5,6-tetrahydropyridazine-3-carboxamide], the IC50 was 10500 nM in assay [1] and 6190 nM in assay [2].

As for `CN1N=C(C(=O)Nc2ccc(Oc3cccc(Cl)c3)cc2)CCC1=O` [Compound 159, N-(4-(3-chlorophenoxy)phenyl)-1-methyl-6-oxo-1,4,5,6-tetrahydropyridazine-3-carboxamide], the IC50 was above 45000 nM in assay [1] and 8040 nM in assay [2].

As for `Cn1cc(C(=O)Nc2ccc(Oc3cccc(Cl)c3)cn2)ccc1=O` [Compound 161, N-[5-(3-chlorophenoxy)pyridin-2-yl]-1-methyl-6-oxo-1,6-dihydropyridine-3-carboxamide], the IC50 is above 45000 nM in assay [1] and 1640 nM in assay [2].

Take `Cn1nc(C(=O)Nc2ccc(Oc3cccc(Cl)c3)cn2)ccc1=O` [Compound 163, N-[5-(3-chlorophenoxy)pyridin-2-yl]-1-methyl-6-oxo-1,6-dihydropyridazine-3-carboxamide]: the IC50 in assay [1] was above 45000 nM; in assay [2], 240 nM.

As for `CCn1cc(C(=O)Nc2ccc(Oc3cccc(Cl)c3)cn2)ccc1=O` [Compound 165, N-[5-(3-chlorophenoxy)pyridin-2-yl]-1-ethyl-6-oxo-1,6-dihydropyridine-3-carboxamide], the IC50 in assay [1] is 14200 nM; in assay [2], 3310 nM.

Regarding `CC(C)n1cc(C(=O)Nc2ccc(Oc3cccc(Cl)c3)cn2)ccc1=O` [Compound 166, N-[5-(3-chlorophenoxy)pyridin-2-yl]-6-oxo-1-(propan-2-yl)-1,6-dihydropyridine-3-carboxamide], the values for the IC50 in assay [1] and in assay [2] were 14700 nM and 9360 nM, respectively.

For `Cn1cc(C(=O)Nc2ccc(Oc3ccc(F)c(Cl)c3)cn2)ccc1=O` [Compound 167, N-[5-(3-chloro-4-fluorophenoxy)pyridin-2-yl]-1-methyl-6-oxo-1,6-dihydropyridine-3-carboxamide], the figures for the IC50 in assay [1] and in assay [2] were 25900 nM and 930 nM, respectively.

Turning to `Cn1nc(C(=O)Nc2ccc(Oc3ccc(F)c(Cl)c3)cn2)ccc1=O` [Compound 168, N-[5-(3-chloro-4-fluorophenoxy)pyridin-2-yl]-1-methyl-6-oxo-1,6-dihydropyridazine-3-carboxamide], the IC50 in assay [1] was above 45000 nM; in assay [2], 1720 nM.

As for `CCn1cc(C(=O)Nc2ccc(Oc3ccc(F)c(Cl)c3)cn2)ccc1=O` [Compound 169, N-[5-(3-chloro-4-fluorophenoxy)pyridin-2-yl]-1-ethyl-6-oxo-1,6-dihydropyridine-3-carboxamide], the IC50 in assay [1] was above 45000 nM; in assay [2], 2480 nM.

In the case of `CN1N=C(C(=O)Nc2ccc(OCc3cccc(Cl)c3)cn2)CCC1=O` [Compound 170, N-(5-(3-chlorobenzyloxy)pyridin-2-yl)-1-methyl-6-oxo-1,4,5,6-tetrahydropyridazine-3-carboxamide], the IC50 was above 45000 nM in assay [1] and 1070 nM in assay [2].

Turning to `Cn1nc(C(=O)Nc2ccc(OCc3cccc(Cl)c3)cn2)ccc1=O` [Compound 171, N-(5-(3-chlorobenzyloxy)pyridin-2-yl)-1-methyl-6-oxo-1,6-dihydropyridazine-3-carboxamide], the IC50 in assay [1] was above 45000 nM; in assay [2], 860 nM.

`Cn1cc(C(=O)Nc2ccc(COc3cccc(Cl)c3)cn2)ccc1=O` [Compound 172, N-(5-((3-chlorophenoxy)methyl)pyridin-2-yl)-1-methyl-6-oxo-1,6-dihydropyridine-3-carboxamide]: the IC50 in assay [1] was found to be 2290 nM; in assay [2], 370 nM.

For `Cn1cc(C(=O)Nc2ccc(CNc3cccc(Cl)c3)cn2)ccc1=O` [Compound 173, N-(5-((3-Chlorophenylamino)methyl)pyridin-2-yl)-1-methyl-6-oxo-1,6-dihydropyridine-3-carboxamide], the IC50 in assay [1] came to 1720 nM; in assay [2] it was 150 nM.

Take `Cn1nc(C(=O)Nc2ccc(CNc3cccc(Cl)c3)cn2)ccc1=O` [Compound 174, N-(5-((3-Chlorophenylamino)methyl)pyridin-2-yl)-1-methyl-6-oxo-1,6-dihydropyridazine-3-carboxamide]: the IC50 in assay [1] was found to be 7560 nM; in assay [2], 80 nM.

`Cn1cc(C(=O)Nc2ccc(Cc3cccc(F)c3)nn2)ccc1=O` [Compound 176, N-(6-(3-fluorobenzyl)pyridazin-3-yl)-1-methyl-6-oxo-1,6-dihydropyridine-3-carboxamide]: the IC50 was above 45000 nM in assay [1] and 2660 nM in assay [2].

On to `CN1N=C(C(=O)Nc2ccc(Cc3cc(Cl)ccc3F)nn2)CCC1=O` [Compound 177, N-(6-(5-chloro-2-fluorobenzyl)pyridazin-3-yl)-1-methyl-6-oxo-1,4,5,6-tetrahydropyridazine-3-carboxamide], for which the values for the IC50 in assay [1] and in assay [2] were above 45000 nM and 5490 nM, respectively.
